In patent US20230082430A1 (C4 Therapeutics, Inc., priority 2019, published 2023):

The compounds below were run on NCIH929.1 cells (assay: Cell viability assay for Table 2 (CellTiter-Glo 2.0, ATP quantification, 96 hr)). Details: 96 h, NCIH929.1 cell viability, 96 hr, top concentration 1 μM, 14 points half log titration; read-out: IC50.
Format: cell-based
Text: Cell Viability Assay for Table 2
CellTiter-Glo® 2.0 Assay was purchased from Promega (Madison, Wis., USA). NCIH929.1 cell line was purchased from ATCC (Manassas, Va., USA). Cell culture flasks and 384-well microplates were acquired from VWR (Radnor, Pa., USA).

Row | Compound | IC50
1 | CC1(CN2CCC(n3cc(Cc4ccc5c6c(cccc46)C(=O)N5C4CCC(=O)NC4=O)cn3)CC23CC3)CCC1 (single isomer, unassigned) [Compound 274, 3-[6-[[1-[4-[(1-methylcyclobutyl)methyl]-4-azaspiro[2.5]octan-7-yl]pyrazol-4-yl]methyl]-2-oxo-benzo[cd]indol-1-yl]piperidine-2,6-dione] | < 1 nM
2 | O=C1CCC(N2C(=O)c3cccc4c(Cc5ccc(CN6CCC7(CCCO7)CC6)cc5)ccc2c34)C(=O)N1 (stereo not drawn) [Compound 215, 3-(6-(4-((1-oxa-8-azaspiro[4.5]decan-8-yl)methyl)benzyl)-2-oxobenzo[cd]indol-1(2H)-yl)piperidine-2,6-dione] | < 1 nM
3 | CC1(n2cc(Cc3ccc4c5c(cccc35)C(=O)N4C3CCC(=O)NC3=O)cn2)CCN(C(=O)C2(C(F)(F)F)CCC2)CC1 (stereo not drawn) [Compound 78, 3-(6-((1-(4-methyl-1-(1-(trifluoromethyl)cyclobutane-1-carbonyl)piperidin-4-yl)-1H-pyrazol-4-yl)methyl)-2-oxobenzo[cd]indol-1(2H)-yl)piperidine-2,6-dione] | < 1 nM
4 | O=C1CCC(N2C(=O)c3cccc4c(Cc5ccc(CN6CCN(c7ccc(Cl)cc7F)CC6)cc5)ccc2c34)C(=O)N1 (single isomer, unassigned) [Compound 254, 3-[6-[[4-[[4-(4-chloro-2-fluoro-phenyl)piperazin-1-yl]methyl]phenyl]methyl]-2-oxo-benzo[cd]indol-1-yl]-piperidine-2,6-dione] | < 1 nM
5 | N#Cc1ccc(N2CCC(Cc3ccc(Cc4ccc5c6c(cccc46)C(=O)N5C4CCC(=O)NC4=O)cc3)CC2)c(F)c1 (stereo not drawn) [Compound 151, 4-(4-(4-((1-(2,6-dioxopiperidin-3-yl)-2-oxo-1,2-dihydrobenzo[cd]indol-6-yl)methyl)benzyl)piperidin-1-yl)-3-fluorobenzonitrile] | < 1 nM
6 | COC(C)(C)CN1CCC(n2cc(Cc3ccc4c5c(cccc35)C(=O)N4C3CCC(=O)NC3=O)cn2)CC1 (stereo not drawn) [Compound 58, 3-(6-((1-(1-(2-methoxy-2-methylpropyl)piperidin-4-yl)-1H-pyrazol-4-yl)methyl)-2-oxobenzo[cd]indol-1(2H)-yl)piperidine-2,6-dione] | < 1 nM
7 | CC1(C(=O)N2CCC(C)(n3cc(Cc4ccc5c6c(cccc46)C(=O)N5C4CCC(=O)NC4=O)cn3)CC2)CC1 (stereo not drawn) [Compound 83, 3-(6-((1-(4-methyl-1-(1-methylcyclopropane-1-carbonyl)piperidin-4-yl)-1H-pyrazol-4-yl)methyl)-2-oxobenzo[cd]indol-1(2H)-yl)piperidine-2,6-dione] | < 1 nM
8 | O=C1CCC(N2C(=O)c3cccc4c(Cc5cnn(C6CCN(C(=O)C78C9C%10C%11C9C7C%11C%108)CC6)c5)ccc2c34)C(=O)N1 (stereo not drawn) [Compound 54, 3-(6-((1-(1-(cubane-1-carbonyl)piperidin-4-yl)-1H-pyrazol-4-yl)methyl)-2-oxobenzo[cd]indol-1(2H)-yl)piperidine-2,6-dione] | < 1 nM
9 | CC(C)(C)OC(=O)N1CCN(Cc2ccc(Cc3ccc4c5c(cccc35)C(=O)N4C3CCC(=O)NC3=O)cc2)CC1 (stereo not drawn) [Compound 107, tert-butyl 4-(4-((1-(2,6-dioxopiperidin-3-yl)-2-oxo-1,2-dihydrobenzo[cd]indol-6-yl)methyl)benzyl)piperazine-1-carboxylate] | < 1 nM
10 | O=C1CCC(N2C(=O)c3cccc4c(Cc5ccccc5)ccc2c34)C(=O)N1 (stereo not drawn) [Compound 277, 3-(6-benzyl-2-oxo-benzo[cd]indol-1-yl)piperidine-2,6-dione] | < 1 nM
11 | CC1(C(=O)N2CCC(c3cnn(Cc4ccc5c6c(cccc46)C(=O)N5C4CCC(=O)NC4=O)c3)CC2)CCC1 (stereo not drawn) [Compound 270, 3-[6-[[4-[1-(1-methylcyclobutanecarbonyl)-4-piperidyl]pyrazol-1-yl]methyl]-2-oxo-benzo[cd]indol-1-yl]piperidine-2,6-dione] | < 1 nM
12 | CC(C)(O)C1CCN(Cc2ccc(Cc3ccc4c5c(cccc35)C(=O)N4C3CCC(=O)NC3=O)cc2)CC1 (stereo not drawn) [Compound 232, 3-(6-(4-((4-(2-hydroxypropan-2-yl)piperidin-1-yl)methyl)benzyl)-2-oxobenzo[cd]indol-1(2H)-yl)piperidine-2,6-dione] | < 1 nM
13 | CC(=O)N1CCC(C)(n2cc(Cc3ccc4c5c(cccc35)C(=O)N4C3CCC(=O)NC3=O)cn2)CC1 (stereo not drawn) [Compound 75, 3-(6-((1-(1-acetyl-4-methylpiperidin-4-yl)-1H-pyrazol-4-yl)methyl)-2-oxobenzo[cd]indol-1(2H)-yl)piperidine-2,6-dione] | < 1 nM
14 | O=C1CCC(N2C(=O)c3cccc4c(Cc5cnn(C6CCN(C(=O)c7ccncc7)CC6)c5)ccc2c34)C(=O)N1 (stereo not drawn) [Compound 42, 3-(6-((1-(1-isonicotinoylpiperidin-4-yl)-1H-pyrazol-4-yl)methyl)-2-oxobenzo[cd]indol-1(2H)-yl)piperidine-2,6-dione] | < 1 nM
15 | O=C1CCC(N2C(=O)c3cccc4c(Cc5cnn(C6CCN(C7CCC78CCC8)CC6)c5)ccc2c34)C(=O)N1 (single isomer, unassigned) [Compound 244, 3-{2-Oxo-6-[1-(1-spiro[3.3]hept-1-yl-piperidin-4-yl)-1H-pyrazol-4-ylmethyl]-2H-benzo[cd]indol-1-yl}-piperidine-2,6-dione] | < 1 nM
16 | CC1(C(=O)N2CCC(n3cc(Cc4ccc5c6c(cccc46)C(=O)N5C4CCC(=O)NC4=O)cn3)CC2)CCC1 (single isomer, unassigned) [Compound 67, 3-[6-[[1-[1-(1-methylcyclobutanecarbonyl)-4-piperidyl]pyrazol-4-yl]methyl]-2-oxo-benzo[cd]indol-1-yl]piperidine-2,6-dione] | < 1 nM
17 | O=C1CCC(N2C(=O)c3cccc4c(Cc5cnn(C6CCN(C(=O)C78CCCC(C7)C8)CC6)c5)ccc2c34)C(=O)N1 (stereo not drawn) [Compound 50, 3-(6-((1-(1-(bicyclo[3.1.1]heptane-1-carbonyl)piperidin-4-yl)-1H-pyrazol-4-yl)methyl)-2-oxobenzo[cd]indol-1(2H)-yl)piperidine-2,6-dione] | < 1 nM
18 | CC1(C(=O)N2CCC(C)(n3cc(Cc4ccc5c6c(cccc46)C(=O)N5C4CCC(=O)NC4=O)cn3)CC2)CCN(c2ccccn2)CC1 (stereo not drawn) [Compound 271, 3-(6-((1-(4-methyl-1-(4-methyl-1-(pyridin-2-yl)piperidine-4-carbonyl)piperidin-4-yl)-1H-pyrazol-4-yl)methyl)-2-oxobenzo[cd]indol-1(2H)-yl)piperidine-2,6-dione] | < 1 nM
19 | CN(C(=O)N1CCC(n2cc(Cc3ccc4c5c(cccc35)C(=O)N4C3CCC(=O)NC3=O)cn2)CC1)C1CC1 (stereo not drawn) [Compound 261, N-cyclopropyl-4-(4-((1-(2,6-dioxopiperidin-3-yl)-2-oxo-1,2-dihydrobenzo[cd]indol-6-yl)methyl)-1H-pyrazol-1-yl)-N-methylpiperidine-1-carboxamide] | < 1 nM
20 | CC1(C)C(N2CCC(n3cc(Cc4ccc5c6c(cccc46)C(=O)N5C4CCC(=O)NC4=O)cn3)CC2)C1(C)C (stereo not drawn) [Compound 240, 3-(2-oxo-6-((1-(1-(2,2,3,3-tetramethylcyclopropyl)piperidin-4-yl)-1H-pyrazol-4-yl)methyl)benzo[cd]indol-1(2H)-yl)piperidine-2,6-dione] | < 1 nM
21 | CC1(C(=O)N2CCC(N3CCN(Cc4ccc5c6c(cccc46)C(=O)N5C4CCC(=O)NC4=O)C3=O)CC2)CCC1 (stereo not drawn) [Compound 181, 3-[6-[[3-[1-(1-methylcyclobutanecarbonyl)-4-piperidyl]-2-oxo-imidazolidin-1-yl]methyl]-2-oxo-benzo[cd]indol-1-yl]piperidine-2,6-dione] | < 1 nM
22 | CC1(n2cc(Cc3ccc4c5c(cccc35)C(=O)N4C3CCC(=O)NC3=O)cn2)CCN(C(=O)C23CCCC(C2)C3)CC1 (stereo not drawn) [Compound 89, 3-(6-((1-(1-(bicyclo[3.1.1]heptane-1-carbonyl)-4-methylpiperidin-4-yl)-1H-pyrazol-4-yl)methyl)-2-oxobenzo[cd]indol-1(2H)-yl)piperidine-2,6-dione] | < 1 nM

Same assay, conditions: NCIH929.1 cell viability, 96 hr, top concentration 1 μM, 14 points half log titration; read-out: IC50

Row | Compound | IC50
23 | CC(C)(C)OC1CCC(n2cc(Cc3ccc4c5c(cccc35)C(=O)N4C3CCC(=O)NC3=O)cn2)CC1 (stereo not drawn) [Compound 213, 3-[6-[[1-(4-tert-butoxycyclohexyl)pyrazol-4-yl]methyl]-2-oxo-benzo[cd]indol-1-yl]piperidine-2,6-dione] | < 1 nM
24 | CC1(C(=O)N2CCC(n3cc(Cc4ccc5c6c(cccc46)C(=O)N5C4CCC(=O)NC4=O)cn3)CC2)CCC1 (single isomer, unassigned) [Compound 68, 3-[6-[[1-[1-(1-methylcyclobutanecarbonyl)-4-piperidyl]pyrazol-4-yl]methyl]-2-oxo-benzo[cd]indol-1-yl]piperidine-2,6-dione] | < 1 nM
25 | O=C1CCC(N2C(=O)c3cccc4c(Cc5ccc(CN6C7COCC6C7)cc5)ccc2c34)C(=O)N1 (stereo not drawn) [Compound 226, 3-(6-(4-((3-oxa-6-azabicyclo[3.1.1]heptan-6-yl)methyl)benzyl)-2-oxobenzo[cd]indol-1(2H)-yl)piperidine-2,6-dione] | < 1 nM
26 | CC1(n2cc(Cc3ccc4c5c(cccc35)C(=O)N4C3CCC(=O)NC3=O)cn2)CCN(C(=O)C23COC(C2)C3)CC1 (single isomer, unassigned) [Compound 239, 3-[6-[[1-[4-methyl-1-(2-oxabicyclo[2.1.1]hexane-4-carbonyl)-4-piperidyl]pyrazol-4-yl]methyl]-2-oxo-benzo[cd]indol-1-yl]piperidine-2,6-dione] | < 1 nM
27 | N#Cc1ccc(N2CCN(Cc3cnn(Cc4ccc5c6c(cccc46)C(=O)N5C4CCC(=O)NC4=O)c3)CC2)c(F)c1 (single isomer, unassigned) [Compound 130, 4-[4-[[1-[[1-[2,6-dioxo-3-piperidyl]-2-oxo-benzo[cd]indol-6-yl]methyl]pyrazol-4-yl]methyl]piperazin-1-yl]-3-fluoro-benzonitrile] | < 1 nM
